Source: patent US20180214583A1, “PHARMACEUTICAL COMBINATION FOR THE TREATMENT OF CANCER” (BAYER PHARMA AKTIENGESELLSCHAFT, priority 2015, published 2018)

What was measured:
[1] = test system: diffuse large B-cell lymphoma (DLBCL); details: cited from earlier work
[2] = single dose 250 kBq per kg body weight; cited from earlier work
[3] = test system: bone metastatic prostate tumors; assay: Radium-223 with anti-PD-L1 immunotherapy in bone metastatic prostate cancer mice models; format: in vivo
Procedure: PD-L1 expression after Ra-223 treatment, and blocking PD-L1 combined with Ra-223 as a treatment for bone metastatic prostate cancer is examined in bone metastatic prostate cancer mice models.
The safety and efficacy of Ra-223 combined with anti-PD-L1 antibody versus Ra-223 or […] alone and radiation therapy as controls are tested. A genetically engineered mouse model (Pten/Smad4-null FVB mice, Ding et al., Nature 2011) is used. Treatments are initiated in mice with established tumors. The goal here is to evaluate treatment efficacy. At the experimental endpoint, tumor volume, metastatic burden (lung and liver) and mouse survival is measured.

Compound | subjects progression-free at the end of the follow-up period ([1]; DLBCL subjects after autologous stem cell transplantation, preliminary results, control group 47%) [%] | subjects alive ([1]; DLBCL subjects after autologous stem cell transplantation, preliminary results, control group 62%) [%] | effect on natural killer cells ([1]; phase II trial) | cases of grade 3 neutropenia [2] | observed adverse reactions [2] | PD-L1 expression after treatment [3]
CT-011: humanized IgG 1 monoclonal antibody against PD-1 | 70 | 82 | augments the activity of natural killer cells | – | – | –
[Cl][223Ra][Cl] [radium-223, radium-223 dichloride] | – | – | – | 1/5 | diarrhea and reversible myelosuppression | upregulates PD-L1 expression
